Legend:
Assay type in all cases: cell-based, mouse
[1] = system: α7 integrin (LacZ reporter in α7+/LacZ myotubes); test: Myotube α7 integrin FDG assay (Burkin assay in myotubes, 96-well); conditions: myotubes
[2] = system: β-galactosidase in CMV-LacZ C2C12 myotubes; test: CMV-LacZ secondary screen in C2C12 myotubes (β-Gal stabilizing assay); conditions: C2C12 CMV-LacZ myotubes, fold relative to DMSO
Outline: (§1)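 β-gal stabilization was measured in C2C12 myoblasts or myotubes stably transfected with a CMV-driven LacZ construct, using the FDG β-gal assay. Compounds were tested in dose-response at 0.5, 1, 5, 10, 20 and 40 μM, with two replicates per point.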

[3] = system: α7 integrin (LacZ reporter in α7βgal+/− myoblasts); test: Myoblast α7+/LacZ integrin FDG assay (Burkin assay in myoblasts, 96-well); conditions: α7+/LacZ myoblasts, 96-well
[4] = system: β-galactosidase in CMV-LacZ C2C12 myoblasts; test: CMV-LacZ secondary screen in C2C12 myoblasts (β-Gal stabilizing assay); conditions: CMV-LacZ C2C12 myoblasts
Outline: as §1

Structure (SMILES) | Burkin Assay in Myotubes, α7 integrin LacZ reporter signal relative to DMSO ([1]; 0.5 uM) | Burkin Assay in Myotubes, α7 integrin LacZ reporter signal relative to DMSO ([1]; 1 uM) | Burkin Assay in Myotubes, α7 integrin LacZ reporter signal relative to DMSO ([1]; 5 uM) | Burkin Assay in Myotubes, α7 integrin LacZ reporter signal relative to DMSO ([1]; 10 uM) | Burkin Assay in Myotubes, α7 integrin LacZ reporter signal relative to DMSO ([1]; 20 uM) | Burkin Assay in Myotubes, α7 integrin LacZ reporter signal relative to DMSO ([1]; 40 uM) | CMV-LACZ in Myotubes, signal relative to DMSO ([2]; 0.5 uM) | CMV-LACZ in Myotubes, signal relative to DMSO ([2]; 1 uM) | CMV-LACZ in Myotubes, signal relative to DMSO ([2]; 5 uM) | CMV-LACZ in Myotubes, signal relative to DMSO ([2]; 10 uM) | CMV-LACZ in Myotubes, signal relative to DMSO ([2]; 20 uM) | CMV-LACZ in Myotubes, signal relative to DMSO ([2]; 40 uM) | Burkin Assay in Myoblasts, signal relative to DMSO ([3]; 0.5 uM) | Burkin Assay in Myoblasts, signal relative to DMSO ([3]; 1 uM) | Burkin Assay in Myoblasts, signal relative to DMSO ([3]; 5 uM) | Burkin Assay in Myoblasts, signal relative to DMSO ([3]; 10 uM) | Burkin Assay in Myoblasts, signal relative to DMSO ([3]; 20 uM) | Burkin Assay in Myoblasts, signal relative to DMSO ([3]; 40 uM) | CMV-LACZ in Myoblasts (β-galactosidase activity relative to DMSO) ([4]; 0.5 uM) | CMV-LACZ in Myoblasts (β-galactosidase activity relative to DMSO) ([4]; 1 uM) | other results
CC(C)Oc1cccc(C(=O)Nc2ccc(CN3CCOCC3)cc2)c1 [MLS000062431-01] | 0.9571 | 0.8415 | 1.178 | 1.1989 | 0.7643 | 0.8841 | 0.9133 | 0.9743 | 0.9004 | 0.9690 | 0.8812 | 1.2047 | 0.9542 | 0.9582 | 1.016 | 1.209 | 1.789 | 0.9038 | 0.9557 | 1.1631 | CMV-LACZ in Myoblasts (β-galactosidase activity relative to DMSO) ([4]; 5 uM): 0.9848; CMV-LACZ in Myoblasts (β-galactosidase activity relative to DMSO) ([4]; 10 uM): 1.1632; CMV-LACZ in Myoblasts (β-galactosidase activity relative to DMSO) ([4]; 20 uM): 1.0467; CMV-LACZ in Myoblasts (β-galactosidase activity relative to DMSO) ([4]; 40 uM): 1.0993
C/C(=N\NC(=O)c1cc(C)oc1C)c1ccc2ccccc2c1 [MLS000912258-01] | 0.9264 | 0.8571 | 1.144 | 0.9631 | 0.877 | 0.7193 | 0.9743 | 0.9162 | 1.1251 | 1.2253 | 1.0760 | 1.0350 | 0.8436 | 0.9089 | 1.2722 | 0.8425 | 0.6351 | 0.3725 | 1.1073 | 1.1693 | CMV-LACZ in Myoblasts (β-galactosidase activity relative to DMSO) ([4]; 5 uM): 0.9071; CMV-LACZ in Myoblasts (β-galactosidase activity relative to DMSO) ([4]; 10 uM): 1.0171; CMV-LACZ in Myoblasts (β-galactosidase activity relative to DMSO) ([4]; 20 uM): 1.1074; CMV-LACZ in Myoblasts (β-galactosidase activity relative to DMSO) ([4]; 40 uM): 0.8621
Cc1cc(OCC(=O)NC(C)C)ccc1Cl [MLS000684034-01] | 0.9731 | 0.9536 | 0.8383 | 0.8076 | 0.7403 | 0.7385 | 1.0962 | 0.9810 | 1.1407 | 1.1903 | 1.2347 | 1.0105 | 0.999 | 1.02 | 0.7872 | 0.6258 | 0.4225 | 0.3085 | 1.2525 | 1.1492 | CMV-LACZ in Myoblasts (β-galactosidase activity relative to DMSO) ([4]; 5 uM): 1.2045; CMV-LACZ in Myoblasts (β-galactosidase activity relative to DMSO) ([4]; 10 uM): 1.0568; CMV-LACZ in Myoblasts (β-galactosidase activity relative to DMSO) ([4]; 20 uM): 0.5374; CMV-LACZ in Myoblasts (β-galactosidase activity relative to DMSO) ([4]; 40 uM): 0.3100
